This note sets out measurements from US12404241B2 (Celgene Corporation, priority 2018, dated 2025).

The structures appear in SMILES notation. Where two headings read alike, the source gives them in different places. Where only a bound is given, the exact number is not on record here.

In this assay the target is T1, AR (Homo sapiens, UniProt P10275).
T1 construct: endogenous in cells; host or cells: VCaP cells
T1 sequence (P10275 1-920): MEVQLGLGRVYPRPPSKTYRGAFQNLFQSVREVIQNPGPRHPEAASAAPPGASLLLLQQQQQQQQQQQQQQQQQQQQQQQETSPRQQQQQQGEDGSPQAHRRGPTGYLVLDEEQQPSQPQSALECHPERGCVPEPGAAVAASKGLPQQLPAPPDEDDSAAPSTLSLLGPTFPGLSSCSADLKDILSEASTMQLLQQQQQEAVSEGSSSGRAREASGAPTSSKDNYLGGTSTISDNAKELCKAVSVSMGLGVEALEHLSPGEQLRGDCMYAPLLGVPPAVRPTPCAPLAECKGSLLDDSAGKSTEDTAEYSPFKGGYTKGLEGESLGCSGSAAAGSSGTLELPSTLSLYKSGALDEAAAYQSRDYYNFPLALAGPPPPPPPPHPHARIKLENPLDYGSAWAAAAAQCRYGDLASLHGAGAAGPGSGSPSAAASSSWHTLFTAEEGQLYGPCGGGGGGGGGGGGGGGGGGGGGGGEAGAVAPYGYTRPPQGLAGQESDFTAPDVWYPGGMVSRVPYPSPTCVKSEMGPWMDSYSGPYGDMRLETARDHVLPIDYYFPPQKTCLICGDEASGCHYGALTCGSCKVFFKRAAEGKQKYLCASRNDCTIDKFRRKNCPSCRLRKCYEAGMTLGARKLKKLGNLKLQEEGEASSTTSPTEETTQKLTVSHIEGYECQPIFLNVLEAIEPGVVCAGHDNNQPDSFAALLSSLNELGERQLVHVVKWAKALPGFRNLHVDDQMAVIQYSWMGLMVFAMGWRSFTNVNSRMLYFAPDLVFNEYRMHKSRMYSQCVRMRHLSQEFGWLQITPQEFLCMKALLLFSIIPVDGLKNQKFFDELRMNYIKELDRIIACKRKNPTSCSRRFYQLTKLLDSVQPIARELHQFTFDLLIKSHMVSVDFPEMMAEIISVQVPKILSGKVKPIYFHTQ
Put plainly: VCAP AR Degradation Assay. The format is cell-based. The following applies: for Y (AR degradation efficiency, % of DMSO control): class symbols *; for DC50: class symbols A-C. In outline:
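Compounds were plated as 10-point 1:3 series reaching 5 μM final, then VCaP cells were seeded onto them and incubated 24 h at 37 °C. Cells were lysed cold, and total AR was measured by sandwich ELISA relative to 0.1% DMSO wells.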

By DC50 is commonly meant the midpoint of the concentration-degradation curve. As to `CC(C)c1cc(N2C(=S)N(c3ccc(C#N)c(C(F)(F)F)c3)C(=O)C2(C)C)ccc1OCCN1C[C@@H](C)N(CC(=O)Nc2cc(Cl)cc(NC3CCC(=O)NC3=O)c2)C[C@H]1C` (stereo partly drawn) [Example 175, N-(3-chloro-5-(2,6-dioxopiperidin-3-ylamino)phenyl)-2-((2R,5R)-4-(2-(4-(3-(4-cyano-3-(trifluoromethyl)phenyl)-5,5-dimethyl-4-oxo-2-thioxoimidazolidin-1-yl)-2-isopropylphenoxy)ethyl)-2,5-dimethylpiperazin-1-yl)acetamide], the “Y (AR degradation efficiency, % of DMSO control)” value was “* (0<Y<=25%)”. Further, the DC50 (read-out: DC50) lay in the range of 100 to 500 nM.
For `CC(C)c1cc(N2C(=S)N(c3cnc(C#N)c(C(F)(F)F)c3)C(=O)C23CCC3)ccc1OCCN1C[C@@H](C)N(CC(=O)Nc2cccc(NC3CCC(=O)NC3=O)c2)[C@@H](C)C1` (stereo partly drawn) [Example 176, 2-((2S,6R)-4-(2-(4-(7-(6-cyano-5-(trifluoromethyl)pyridin-3-yl)-8-oxo-6-thioxo-5,7-diazaspiro[3.4]octan-5-yl)-2-isopropylphenoxy)ethyl)-2,6-dimethylpiperazin-1-yl)-N-(3-(2,6-dioxopiperidin-3-ylamino)phenyl)acetamide] the same measures were “* (0<Y<=25%)” and less than 100 nM.
Regarding `CCc1cc(N2C(=S)N(c3ccc(C#N)c(C(F)(F)F)c3)C(=O)C2(C)C)ccc1OCCN1CC2CCC(C1)N2CC(=O)Nc1cccc(NC2CCC(=O)NC2=O)c1` (centres unmarked) [Example 177, 2-(3-(2-(4-(3-(4-cyano-3-(trifluoromethyl)phenyl)-5,5-dimethyl-4-oxo-2-thioxoimidazolidin-1-yl)-2-ethylphenoxy)ethyl)-3,8-diazabicyclo[3.2.1]octan-8-yl)-N-(3-(2,6-dioxopiperidin-3-ylamino)phenyl)acetamide], the “Y (AR degradation efficiency, % of DMSO control)” value was “* (0<Y<=25%)”. Further, the half-maximal degradation concentration (DC50) (read-out: DC50) fell in the range of 100 to 500 nM.
As for `CCc1cc(N2C(=S)N(c3cnc(C#N)c(C(F)(F)F)c3)C(=O)C2(C)C)ccc1OCCN1CC2CCC(C1)N2CC(=O)Nc1cccc(NC2CCC(=O)NC2=O)c1` (centres unmarked) [Example 178, 2-(3-(2-(4-(3-(6-cyano-5-(trifluoromethyl)pyridin-3-yl)-5,5-dimethyl-4-oxo-2-thioxoimidazolidin-1-yl)-2-ethylphenoxy)ethyl)-3,8-diazabicyclo[3.2.1]octan-8-yl)-N-(3-(2,6-dioxopiperidin-3-ylamino)phenyl)acetamide], the “Y (AR degradation efficiency, % of DMSO control)” value was “** (25%<Y<=35%)” and the 50% degradation concentration (DC50) was less than 100 nM.
In the case of `CCc1cc(N2C(=S)N(c3cnc(C#N)c(C(F)(F)F)c3)C(=O)C2(C)C)ccc1OCCN1C[C@@H]2CC[C@H]1CN2CC(=O)Nc1cc(Cl)cc(NC2CCC(=O)NC2=O)c1` (stereo partly drawn) [Example 179, N-(3-chloro-5-(2,6-dioxopiperidin-3-ylamino)phenyl)-2-((1S,4S)-5-(2-(4-(3-(6-cyano-5-(trifluoromethyl)pyridin-3-yl)-5,5-dimethyl-4-oxo-2-thioxoimidazolidin-1-yl)-2-ethylphenoxy)ethyl)-2,5-diazabicyclo[2.2.2]octan-2-yl)acetamide], the “Y (AR degradation efficiency, % of DMSO control)” value was “** (25%<Y<=35%)”. Moreover, the DC50 (read-out: DC50) was 100 to 500 nM.
The corresponding values for `CC(C)c1cc(N2C(=S)N(c3cnc(C#N)c(C(F)(F)F)c3)C(=O)C2(C)C)ccc1OCCN1C[C@@H](C)N(CC(=O)Nc2cccc(NC3CCC(=O)NC3=O)c2)[C@@H](C)C1` (stereo partly drawn) [Example 180, 2-((2S,6R)-4-(2-(4-(3-(6-cyano-5-(trifluoromethyl)pyridin-3-yl)-5,5-dimethyl-4-oxo-2-thioxoimidazolidin-1-yl)-2-isopropylphenoxy)ethyl)-2,6-dimethylpiperazin-1-yl)-N-(3-(2,6-dioxopiperidin-3-ylamino)phenyl)acetamide] are “* (0<Y<=25%)” and less than 100 nM.
For `CCc1cc(N2C(=S)N(c3ccc(C#N)c(C(F)(F)F)c3)C(=O)C2(C)C)ccc1OCCN1C[C@@H](C)N(CC(=O)Nc2cc(C#N)cc(NC3CCC(=O)NC3=O)c2)C[C@H]1C` (stereo partly drawn) [Example 181, 2-((2R,5R)-4-(2-(4-(3-(4-cyano-3-(trifluoromethyl)phenyl)-5,5-dimethyl-4-oxo-2-thioxoimidazolidin-1-yl)-2-ethylphenoxy)ethyl)-2,5-dimethylpiperazin-1-yl)-N-(3-cyano-5-(2,6-dioxopiperidin-3-ylamino)phenyl)acetamide] the same measures were “* (0<Y<=25%)” and less than 100 nM.
For `CCc1cc(N2C(=S)N(c3cnc(C#N)c(C(F)(F)F)c3)C(=O)C23CCC3)ccc1OCCN1C[C@H]2CC[C@@H]1CN2CC(=O)Nc1cccc(NC2CCC(=O)NC2=O)c1` (stereo partly drawn) [Example 182, 2-((1R,4R)-5-(2-(4-(7-(6-cyano-5-(trifluoromethyl)pyridin-3-yl)-8-oxo-6-thioxo-5,7-diazaspiro[3.4]octan-5-yl)-2-ethylphenoxy)ethyl)-2,5-diazabicyclo[2.2.2]octan-2-yl)-N-(3-(2,6-dioxopiperidin-3-ylamino)phenyl)acetamide] the same measures were “** (25%<Y<=35%)” and 100 to 500 nM.
For the compound `CCc1cc(N2C(=S)N(c3cnc(C#N)c(C(F)(F)F)c3)C(=O)C2(C)C)ccc1OCCN1C[C@H]2CC[C@@H]1CN2CC(=O)Nc1cccc(NC2CCC(=O)NC2=O)c1` (stereo partly drawn) [Example 183, 2-((1R,4R)-5-(2-(4-(3-(6-cyano-5-(trifluoromethyl)pyridin-3-yl)-5,5-dimethyl-4-oxo-2-thioxoimidazolidin-1-yl)-2-ethylphenoxy)ethyl)-2,5-diazabicyclo[2.2.2]octan-2-yl)-N-(3-(2,6-dioxopiperidin-3-ylamino)phenyl)acetamide], the “Y (AR degradation efficiency, % of DMSO control)” value is given as “** (25%<Y<=35%)”. The half-maximal degradation concentration (DC50) (read-out: DC50) fell in the range of 100 to 500 nM.
The corresponding values for `CCc1cc(N2C(=S)N(c3cnc(C#N)c(C(F)(F)F)c3)C(=O)C2(C)C)ccc1OCCN1C[C@H]2CC[C@@H]1CN2CC(=O)Nc1cc(Cl)cc(NC2CCC(=O)NC2=O)c1` (stereo partly drawn) [Example 184, N-(3-chloro-5-(2,6-dioxopiperidin-3-ylamino)phenyl)-2-((1R,4R)-5-(2-(4-(3-(6-cyano-5-(trifluoromethyl)pyridin-3-yl)-5,5-dimethyl-4-oxo-2-thioxoimidazolidin-1-yl)-2-ethylphenoxy)ethyl)-2,5-diazabicyclo[2.2.2]octan-2-yl)acetamide] are “** (25%<Y<=35%)” and 100 to 500 nM.
For `CC(C)c1cc(N2C(=S)N(c3cnc(C#N)c(C(F)(F)F)c3)C(=O)C2(C)C)ccc1OCCN1C[C@@H](C)N(CC(=O)Nc2cc(Cl)cc(NC3CCC(=O)NC3=O)c2)C[C@H]1C` (stereo partly drawn) [Example 185, N-(3-chloro-5-(2,6-dioxopiperidin-3-ylamino)phenyl)-2-((2R,5R)-4-(2-(4-(3-(6-cyano-5-(trifluoromethyl)pyridin-3-yl)-5,5-dimethyl-4-oxo-2-thioxoimidazolidin-1-yl)-2-isopropylphenoxy)ethyl)-2,5-dimethylpiperazin-1-yl)acetamide] the same measures were “* (0<Y<=25%)” and 100 to 500 nM.
The corresponding values for `CCc1cc(N2C(=S)N(c3ccc(C#N)c(C(F)(F)F)c3)C(=O)C2(C)C)ccc1OCCN1C[C@@H](C)N(CC(=O)Nc2cc(C#N)cc(NC3CCC(=O)NC3=O)c2)[C@@H](C)C1` (stereo partly drawn) [Example 186, 2-((2S,6R)-4-(2-(4-(3-(4-cyano-3-(trifluoromethyl)phenyl)-5,5-dimethyl-4-oxo-2-thioxoimidazolidin-1-yl)-2-ethylphenoxy)ethyl)-2,6-dimethylpiperazin-1-yl)-N-(3-cyano-5-(2,6-dioxopiperidin-3-ylamino)phenyl)acetamide] are “* (0<Y<=25%)” and less than 100 nM.
As for `CCc1cc(N2C(=S)N(c3ccc(C#N)c(C(F)(F)F)c3)C(=O)C2(C)C)cnc1OCCN1CCN(CC(=O)Nc2cccc(NC3CCC(=O)NC3=O)c2)[C@H](C)C1` (stereo partly drawn) [Example 187, 2-((R)-4-(2-(5-(3-(4-cyano-3-(trifluoromethyl)phenyl)-5,5-dimethyl-4-oxo-2-thioxoimidazolidin-1-yl)-3-ethylpyridin-2-yloxy)ethyl)-2-methylpiperazin-1-yl)-N-(3-(2,6-dioxopiperidin-3-ylamino)phenyl)acetamide], the “Y (AR degradation efficiency, % of DMSO control)” value is listed as “* (0<Y<=25%)”. For the same compound, where the note is “read-out: DC50”, the DC50 is less than 100 nM.
